A word on the IC50: it is the midpoint of a concentration-inhibition curve.

SMILES strings stand for the structures. A value given as a limit tells only on which side of the number the result lay.

Drawing on patent publication US9056843B2, “Trifluoromethyl-oxadiazole derivatives and their use in the treatment of disease” (NOVARTIS AG, priority 2011, dated 2015), this text covers IC50 for twelve molecules.

Common to all, as to format: biochemical
For one assay, the target named is Human recombinant HDAC4 (Homo sapiens (Human), UniProt P56524). The assay can be described thus: Test 2: HDAC4 assay (fluorogenic substrate, 5 μM acetyl-Gly-Ala-Lys(ε-trifluoroacetyl)-AMC). Particulars: Test 2 (values without asterisk). Here is the method:
Test 2: HDAC4 Assay Description
(§1) Control wells with HDAC4 only (positive control) and without HDAC4 (negative control) were included on the microplate. Bovine trypsin (4.5 μl of a 300 nM solution) was added and the plate incubated for additional 15 minutes at room temperature. The plate was placed in a fluorescence microplate reader, and read at an excitation wavelength of 360 nm and an emission wavelength of 450 nm with a 10 nm bandpath. Fluorescence values for all wells containing HDAC4 (positive control and wells with test compound) were corrected by subtracting negative control fluorescence values, and IC50 values were calculated by fitting the dose-response curves to a 4-parameter logistic function.

Assay [1] has as its target Human recombinant full length HDAC1 (Homo sapiens (Human), UniProt Q13547). The assay can be described thus: Test 3: HDAC1 assay. Particulars: substrate 5 μM acetyl-Gly-Ala-Lys(acetyl)-AMC. The protocol: as §1
Test 3: HDAC1 Assay Description
A similar assay procedure as described in Test 2 was used for HDAC1. Human recombinant full length HDAC1 expressed in a baculovirus expression system was purchased from BPS BioSciences (San Diego, Calif., U.S.A.). The substrate used in the […] assay was 5 μM of acetyl-Gly-Ala-Lys(acetyl)-AMC.

Assay [2] addresses Human recombinant full length HDAC6 (Homo sapiens (Human), UniProt Q9UBN7). The assay can be described thus: Test 4: HDAC6 assay. Particulars: Test 4; substrate 5 μM acetyl-Gly-Ala-Lys(acetyl)-AMC. Here is the method:
as §1
Test 4: HDAC6 Assay Description
A similar assay procedure as described in Test 2 was used for HDAC6. Human recombinant full length HDAC6 expressed in a baculovirus expression system was purchased from BPS BioSciences (San Diego, Calif., U.S.A.). The substrate used in the […] assay was 5 μM of acetyl-Gly-Ala-Lys(acetyl)-AMC.

Human recombinant full length HDAC6, sequence (Q9UBN7 whole entry): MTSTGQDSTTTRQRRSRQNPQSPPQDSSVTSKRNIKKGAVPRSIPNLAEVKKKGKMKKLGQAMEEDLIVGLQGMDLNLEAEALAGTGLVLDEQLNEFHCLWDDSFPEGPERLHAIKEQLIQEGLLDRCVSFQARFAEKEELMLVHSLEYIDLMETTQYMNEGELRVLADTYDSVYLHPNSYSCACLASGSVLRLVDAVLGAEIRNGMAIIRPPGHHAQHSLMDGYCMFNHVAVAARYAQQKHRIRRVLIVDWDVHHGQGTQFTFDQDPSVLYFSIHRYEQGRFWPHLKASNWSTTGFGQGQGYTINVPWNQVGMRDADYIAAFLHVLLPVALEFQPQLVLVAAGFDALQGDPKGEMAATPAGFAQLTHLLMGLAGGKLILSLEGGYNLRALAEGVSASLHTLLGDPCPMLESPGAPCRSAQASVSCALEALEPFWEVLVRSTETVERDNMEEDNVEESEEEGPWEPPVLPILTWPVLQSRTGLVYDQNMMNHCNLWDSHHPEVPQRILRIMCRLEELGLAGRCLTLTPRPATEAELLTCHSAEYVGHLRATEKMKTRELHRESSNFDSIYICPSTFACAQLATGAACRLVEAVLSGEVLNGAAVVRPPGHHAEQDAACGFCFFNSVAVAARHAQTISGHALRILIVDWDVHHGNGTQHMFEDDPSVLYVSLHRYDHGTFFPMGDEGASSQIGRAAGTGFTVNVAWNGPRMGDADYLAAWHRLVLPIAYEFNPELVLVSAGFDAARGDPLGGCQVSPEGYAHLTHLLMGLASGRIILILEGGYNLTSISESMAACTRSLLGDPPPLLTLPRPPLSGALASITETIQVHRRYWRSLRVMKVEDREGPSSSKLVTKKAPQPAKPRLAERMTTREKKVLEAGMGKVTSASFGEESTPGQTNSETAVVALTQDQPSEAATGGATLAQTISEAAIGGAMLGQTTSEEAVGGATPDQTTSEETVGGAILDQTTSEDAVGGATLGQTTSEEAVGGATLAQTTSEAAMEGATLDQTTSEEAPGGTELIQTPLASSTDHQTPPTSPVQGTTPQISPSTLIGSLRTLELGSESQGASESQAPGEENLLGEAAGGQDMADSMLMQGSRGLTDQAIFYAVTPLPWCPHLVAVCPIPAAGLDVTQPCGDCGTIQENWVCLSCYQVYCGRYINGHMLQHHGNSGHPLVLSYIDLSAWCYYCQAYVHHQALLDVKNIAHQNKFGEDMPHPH
Human recombinant full length HDAC1, sequence (Q13547 whole entry): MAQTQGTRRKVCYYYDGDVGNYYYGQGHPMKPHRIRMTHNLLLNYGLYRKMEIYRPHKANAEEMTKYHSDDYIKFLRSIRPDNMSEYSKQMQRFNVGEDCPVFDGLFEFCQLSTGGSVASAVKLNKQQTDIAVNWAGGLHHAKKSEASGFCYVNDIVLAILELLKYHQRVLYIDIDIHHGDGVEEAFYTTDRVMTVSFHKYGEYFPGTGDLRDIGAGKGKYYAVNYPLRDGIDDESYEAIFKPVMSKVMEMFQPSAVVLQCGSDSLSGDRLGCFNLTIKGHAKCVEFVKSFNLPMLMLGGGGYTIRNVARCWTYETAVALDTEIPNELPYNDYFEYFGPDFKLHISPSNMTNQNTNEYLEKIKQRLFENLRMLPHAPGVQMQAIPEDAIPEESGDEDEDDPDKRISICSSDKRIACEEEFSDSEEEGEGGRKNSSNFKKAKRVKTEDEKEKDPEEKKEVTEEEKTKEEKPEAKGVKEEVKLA
Human recombinant HDAC4, sequence (P56524 2-1084): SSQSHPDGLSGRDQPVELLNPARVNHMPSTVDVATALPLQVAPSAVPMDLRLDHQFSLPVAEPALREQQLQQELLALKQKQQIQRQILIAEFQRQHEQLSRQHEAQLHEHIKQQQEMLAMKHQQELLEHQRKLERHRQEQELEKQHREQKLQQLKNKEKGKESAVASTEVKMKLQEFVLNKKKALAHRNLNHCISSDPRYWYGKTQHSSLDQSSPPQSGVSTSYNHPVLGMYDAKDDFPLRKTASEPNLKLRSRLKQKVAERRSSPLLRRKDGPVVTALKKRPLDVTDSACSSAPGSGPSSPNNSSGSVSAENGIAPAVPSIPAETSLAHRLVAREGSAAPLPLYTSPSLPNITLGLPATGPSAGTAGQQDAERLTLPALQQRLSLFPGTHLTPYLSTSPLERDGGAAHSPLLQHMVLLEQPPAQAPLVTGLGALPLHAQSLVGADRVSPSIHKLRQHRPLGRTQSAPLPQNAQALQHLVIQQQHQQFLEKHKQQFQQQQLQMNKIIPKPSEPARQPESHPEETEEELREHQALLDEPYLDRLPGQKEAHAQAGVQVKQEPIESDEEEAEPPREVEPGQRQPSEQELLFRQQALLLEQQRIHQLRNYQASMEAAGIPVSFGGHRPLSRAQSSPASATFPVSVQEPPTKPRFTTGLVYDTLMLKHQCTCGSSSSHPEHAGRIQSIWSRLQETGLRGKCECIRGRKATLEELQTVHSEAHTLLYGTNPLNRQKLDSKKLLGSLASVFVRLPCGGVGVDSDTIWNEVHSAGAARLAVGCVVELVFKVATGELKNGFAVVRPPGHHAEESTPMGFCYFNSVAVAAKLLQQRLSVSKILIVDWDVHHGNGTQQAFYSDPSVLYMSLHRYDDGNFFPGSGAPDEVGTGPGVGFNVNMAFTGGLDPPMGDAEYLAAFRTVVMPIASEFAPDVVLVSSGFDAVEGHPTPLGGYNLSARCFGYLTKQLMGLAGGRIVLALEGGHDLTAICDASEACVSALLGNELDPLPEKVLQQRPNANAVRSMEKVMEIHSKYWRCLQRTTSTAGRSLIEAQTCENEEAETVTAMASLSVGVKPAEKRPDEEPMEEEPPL

Consider `C[C@H](CN(C)Cc1ccccc1)NC(=O)c1ccc(-c2noc(C(F)(F)F)n2)cc1` [Example 156, (R)—N-(1-(benzyl(methyl)amino)propan-2-yl)-4-(5-(trifluoromethyl)-1,2,4-oxadiazol-3-yl)benzamide], for which the IC50 on Human recombinant HDAC4 amounted to 0.85 nM; in assay [1], 2900 nM; in assay [2] it was 2300 nM.

As for `CN(C)CC(C)(C)NC(=O)c1ccc(-c2noc(C(F)(F)F)n2)cc1` [Example 119, N-(1-(dimethylamino)-2-methylpropan-2-yl)-4-(5-(trifluoromethyl)-1,2,4-oxadiazol-3-yl)benzamide], the IC50 on Human recombinant HDAC4 is 36 nM; in assay [1] it was over 10000 nM; in assay [2] it was over 10000 nM.

As to `CN1CCC[C@@H](NC(=O)c2ccc(-c3noc(C(F)(F)F)n3)cc2)C1` [Example 154, (R)—N-(1-methylpiperidin-3-yl)-4-(5-(trifluoromethyl)-1,2,4-oxadiazol-3-yl)benzamide], the concentration for half-maximal inhibition (IC50) is 110 nM on Human recombinant HDAC4, over 10000 nM in assay [1] and 7200 nM in assay [2].

Regarding `CCN(CC)CCNC(=O)c1ccc(-c2noc(C(F)(F)F)n2)cc1` [Example 155, N-(2-(diethylamino)ethyl)-4-(5-(trifluoromethyl)-1,2,4-oxadiazol-3-yl)benzamide], the values for the IC50 (at Human recombinant HDAC4; in assay [1]; in assay [2]) were 12 nM, 2900 nM and 2600 nM, respectively.

For the molecule `Cc1cccc(NS(=O)(=O)c2ccc(-c3noc(C(F)(F)F)n3)cc2)c1` [Example 105, N-m-tolyl-4-(5-(trifluoromethyl)-1,2,4-oxadiazol-3-yl)benzenesulfonamide], the IC50 at Human recombinant HDAC4 was determined as 270 nM; in assay [1], 3600 nM; in assay [2] it was 470 nM.

As to `COCCN(C)C(=O)c1ccc(-c2noc(C(F)(F)F)n2)cc1` [Example 18, N-(2-methoxyethyl)-N-methyl-4-(5-(trifluoromethyl)-1,2,4-oxadiazol-3-yl)benzamide], the results for the IC50 (on Human recombinant HDAC4; in assay [1]; in assay [2]) were 390 nM, over 10000 nM and over 10000 nM, respectively.

Turning to `O=C(Nc1ccnc(Cl)c1)c1ccc(-c2noc(C(F)(F)F)n2)cc1` [Example 75, N-(2-chloropyridin-4-yl)-4-(5-(trifluoromethyl)-1,2,4-oxadiazol-3-yl)benzamide], the IC50 is 160 nM on Human recombinant HDAC4, over 10000 nM in assay [1] and over 10000 nM in assay [2].

As for `Cc1ccccc1NS(=O)(=O)c1ccc(-c2noc(C(F)(F)F)n2)cc1` [Example 103, N-o-tolyl-4-(5-trifluoromethyl-[1,2,4]oxadiazol-3-yl)-benzenesulfonamide], the half-maximal inhibitory concentration (IC50) on Human recombinant HDAC4 is 80 nM; in assay [1], over 10000 nM; in assay [2], 700 nM.

As for `CC(C)N(C)C(=O)c1ccc(-c2noc(C(F)(F)F)n2)cc1` [Example 24, N-isopropyl-N-methyl-4-(5-(trifluoromethyl)-1,2,4-oxadiazol-3-yl)benzamide], the half-maximal inhibitory concentration (IC50) at Human recombinant HDAC4 is 770 nM; in assay [1], over 10000 nM; in assay [2], over 10000 nM.

On to `O=C(NCc1ccccc1)c1ccc(-c2noc(C(F)(F)F)n2)cc1` [Example 46, N-benzyl-4-(5-(trifluoromethyl)-1,2,4-oxadiazol-3-yl)benzamide], for which the values for the IC50 (on Human recombinant HDAC4; in assay [1]; in assay [2]) were 780 nM, over 10000 nM and 3300 nM, respectively.

In the case of `CC(CN(C)C)N(C)C(=O)c1ccc(-c2noc(C(F)(F)F)n2)cc1` (stereo not drawn) [Example 94, N-(1-(dimethylamino)propan-2-yl)-N-methyl-4-(5-(trifluoromethyl)-1,2,4-oxadiazol-3-yl)benzamide], the IC50 at Human recombinant HDAC4 is 520 nM; in assay [1], over 10000 nM; in assay [2], over 10000 nM.

Turning to `C[C@@H](CO)NC(=O)c1ccc(-c2noc(C(F)(F)F)n2)cc1` [Example 50, (S)—N-(1-hydroxyypropan-2-yl)-4-(5-(trifluoromethyl)-1,2,4-oxadiazol-3-yl)benzamide], the IC50 was 620 nM on Human recombinant HDAC4, over 10000 nM in assay [1] and 7200 nM in assay [2].
